Laboratory results as given in article PMC4710522, “A Novel Triazolopyridine-Based Spleen Tyrosine Kinase Inhibitor That Arrests Joint Inflammation” (PLoS ONE, 2016).
Read-outs that look alike come from different tables or passages of the source.

Assays:
[1] = system: rat passive cutaneous anaphylaxis model; conditions: 10 mg/kg dose; cited from earlier work
[2] = rat CIA, cited from earlier work
[3] = target: T1, MEK2_h (Homo sapiens, UniProt P36507); assay: SelectScreen kinase assay; type: biochemical; conditions: 100 µM ATP, read-out: % control
T1 construct: purchased Life Technologies (Invitrogen) SelectScreen, Z'-LYTE / Adapta
T1 sequence (P36507 whole entry): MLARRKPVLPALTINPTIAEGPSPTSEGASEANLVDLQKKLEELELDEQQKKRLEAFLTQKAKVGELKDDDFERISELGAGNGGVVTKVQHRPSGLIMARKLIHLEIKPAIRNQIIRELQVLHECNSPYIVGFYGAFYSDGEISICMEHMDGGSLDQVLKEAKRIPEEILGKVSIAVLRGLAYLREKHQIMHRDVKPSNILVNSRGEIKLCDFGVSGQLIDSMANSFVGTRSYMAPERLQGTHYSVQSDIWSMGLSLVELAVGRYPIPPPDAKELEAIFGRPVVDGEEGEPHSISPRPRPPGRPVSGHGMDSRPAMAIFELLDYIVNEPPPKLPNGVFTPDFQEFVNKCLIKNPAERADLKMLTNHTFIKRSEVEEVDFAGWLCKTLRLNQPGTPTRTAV

[4] = target: T2, PKC-iota_h (Homo sapiens, UniProt P41743); assay: SelectScreen kinase assay; type: biochemical; conditions: KM ATP, read-out: % control
T2 construct: purchased Life Technologies (Invitrogen) SelectScreen, Z'-LYTE / Adapta
T2 sequence (P41743 whole entry): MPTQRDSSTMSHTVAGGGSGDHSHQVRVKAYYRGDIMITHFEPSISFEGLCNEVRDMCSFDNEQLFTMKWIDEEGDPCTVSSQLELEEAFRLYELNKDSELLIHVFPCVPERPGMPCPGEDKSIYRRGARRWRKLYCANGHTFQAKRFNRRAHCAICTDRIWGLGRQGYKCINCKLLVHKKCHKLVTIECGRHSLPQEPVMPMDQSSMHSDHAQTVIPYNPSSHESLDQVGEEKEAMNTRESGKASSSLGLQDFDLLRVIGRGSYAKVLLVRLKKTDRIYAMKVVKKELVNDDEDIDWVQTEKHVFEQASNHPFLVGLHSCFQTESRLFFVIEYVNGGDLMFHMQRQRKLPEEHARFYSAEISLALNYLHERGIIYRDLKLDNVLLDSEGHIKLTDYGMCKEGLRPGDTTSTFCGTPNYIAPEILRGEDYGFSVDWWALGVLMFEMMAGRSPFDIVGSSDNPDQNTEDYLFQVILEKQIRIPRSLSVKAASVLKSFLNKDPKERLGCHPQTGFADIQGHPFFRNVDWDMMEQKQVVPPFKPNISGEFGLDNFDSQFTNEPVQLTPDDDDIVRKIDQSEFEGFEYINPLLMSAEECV

[5] = target: T3, Ret_V804L_h (Homo sapiens, UniProt P07949, V804L); assay: SelectScreen kinase assay; type: biochemical; conditions: KM ATP, read-out: % control
T3 construct: purchased Life Technologies (Invitrogen) SelectScreen, Z'-LYTE / Adapta
T3 sequence (P07949 29-1114 V804L): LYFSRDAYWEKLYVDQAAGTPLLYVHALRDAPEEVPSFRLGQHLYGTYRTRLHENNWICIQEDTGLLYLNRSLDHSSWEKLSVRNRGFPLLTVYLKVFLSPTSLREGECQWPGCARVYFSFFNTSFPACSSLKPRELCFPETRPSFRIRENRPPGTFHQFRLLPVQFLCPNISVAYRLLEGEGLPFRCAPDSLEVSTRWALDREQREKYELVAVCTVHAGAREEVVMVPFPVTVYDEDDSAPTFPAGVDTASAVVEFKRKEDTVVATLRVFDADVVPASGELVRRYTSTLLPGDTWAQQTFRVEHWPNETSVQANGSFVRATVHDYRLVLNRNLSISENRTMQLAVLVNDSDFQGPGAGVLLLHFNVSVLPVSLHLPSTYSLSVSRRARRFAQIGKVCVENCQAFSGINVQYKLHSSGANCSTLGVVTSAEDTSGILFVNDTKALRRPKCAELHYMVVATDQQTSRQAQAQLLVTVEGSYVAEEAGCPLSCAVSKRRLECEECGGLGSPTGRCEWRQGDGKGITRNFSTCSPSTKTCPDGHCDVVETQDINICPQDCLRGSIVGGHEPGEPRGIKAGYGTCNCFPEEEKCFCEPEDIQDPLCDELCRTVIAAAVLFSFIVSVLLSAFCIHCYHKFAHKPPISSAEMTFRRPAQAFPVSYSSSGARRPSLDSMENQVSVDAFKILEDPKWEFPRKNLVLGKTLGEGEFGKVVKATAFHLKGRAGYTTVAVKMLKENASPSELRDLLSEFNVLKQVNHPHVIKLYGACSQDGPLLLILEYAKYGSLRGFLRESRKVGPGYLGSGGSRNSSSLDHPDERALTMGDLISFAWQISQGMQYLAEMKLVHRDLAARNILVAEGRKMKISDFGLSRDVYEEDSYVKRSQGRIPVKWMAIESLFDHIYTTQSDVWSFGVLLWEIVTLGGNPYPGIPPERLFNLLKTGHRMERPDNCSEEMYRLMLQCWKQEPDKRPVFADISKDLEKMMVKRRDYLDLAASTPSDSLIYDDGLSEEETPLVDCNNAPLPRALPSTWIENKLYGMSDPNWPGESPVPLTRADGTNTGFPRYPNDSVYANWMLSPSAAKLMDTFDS

[6] = target: T4, ZIPK_h (Homo sapiens, UniProt O43293); assay: SelectScreen kinase assay; type: biochemical; conditions: KM ATP, read-out: % control
T4 construct: purchased Life Technologies (Invitrogen) SelectScreen, Z'-LYTE / Adapta
T4 sequence (O43293 whole entry): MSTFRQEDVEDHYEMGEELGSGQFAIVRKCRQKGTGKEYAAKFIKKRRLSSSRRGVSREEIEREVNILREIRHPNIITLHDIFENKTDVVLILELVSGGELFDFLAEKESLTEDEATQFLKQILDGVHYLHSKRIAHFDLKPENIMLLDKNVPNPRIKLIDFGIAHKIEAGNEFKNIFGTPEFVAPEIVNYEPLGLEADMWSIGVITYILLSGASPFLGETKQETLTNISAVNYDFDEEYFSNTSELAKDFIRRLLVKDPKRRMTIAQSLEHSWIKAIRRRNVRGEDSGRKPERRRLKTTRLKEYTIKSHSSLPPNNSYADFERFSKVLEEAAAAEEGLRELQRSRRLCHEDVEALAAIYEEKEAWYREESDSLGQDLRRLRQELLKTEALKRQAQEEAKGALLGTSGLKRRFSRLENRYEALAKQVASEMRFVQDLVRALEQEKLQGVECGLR

[7] = target: T5, Adenosine A1 (Homo sapiens, UniProt P30542); assay: receptor, ion channel, transporter binding panel (CEREP)
T5 construct: CEREP (contract assay)
T5 sequence (P30542 whole entry): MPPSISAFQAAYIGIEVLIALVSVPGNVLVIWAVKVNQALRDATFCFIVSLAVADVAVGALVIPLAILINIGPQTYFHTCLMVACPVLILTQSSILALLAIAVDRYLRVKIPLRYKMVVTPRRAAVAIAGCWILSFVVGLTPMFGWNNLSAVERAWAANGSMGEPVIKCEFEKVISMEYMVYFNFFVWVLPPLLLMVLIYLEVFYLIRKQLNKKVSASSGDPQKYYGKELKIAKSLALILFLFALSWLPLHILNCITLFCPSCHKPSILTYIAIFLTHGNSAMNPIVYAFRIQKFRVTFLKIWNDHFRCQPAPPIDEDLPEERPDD
Experimental: (§1) Syk kinase mode of inhibition studies, including parameters described in Fig 1, were conducted on the LC3000 platform by Caliper Life Sciences (Hopkinton, MA) according to standard protocols developed by the supplier. […] Non-kinase enzyme assays and GPCR, ion channel, and transporter binding assays were run by CEREP (France). Non-GLP manual patch clamp hERG assays were run by ChanTest (Cleveland, Ohio). Vivid® Assay kits (Life Technologies) were used to measure the cytochrome P450 inhibition of the compound against CYP3A, CYP2C9, CYP2C19, CYP2D6, and CYP1A2, as described.

[8] = target: T6, Adenosine A2a (Homo sapiens, UniProt P29274); assay: as above
T6 construct: CEREP (contract assay)
T6 sequence (P29274 whole entry): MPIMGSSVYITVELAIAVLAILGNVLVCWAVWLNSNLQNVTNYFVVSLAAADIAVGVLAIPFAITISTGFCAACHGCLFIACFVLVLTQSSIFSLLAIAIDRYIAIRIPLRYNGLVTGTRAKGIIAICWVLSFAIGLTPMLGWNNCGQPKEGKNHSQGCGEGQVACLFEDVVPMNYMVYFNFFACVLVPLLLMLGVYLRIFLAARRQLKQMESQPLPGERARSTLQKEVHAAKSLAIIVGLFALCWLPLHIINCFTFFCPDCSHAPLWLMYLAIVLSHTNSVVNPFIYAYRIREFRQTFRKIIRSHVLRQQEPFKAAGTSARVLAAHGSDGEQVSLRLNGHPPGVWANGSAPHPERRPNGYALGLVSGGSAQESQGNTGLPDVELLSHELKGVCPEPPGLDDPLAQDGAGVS
Experimental: as §1

[9] = target: T7, Adenosine A3 (Homo sapiens, UniProt P0DMS8); assay: as above
T7 construct: CEREP (contract assay)
T7 sequence (P0DMS8 whole entry): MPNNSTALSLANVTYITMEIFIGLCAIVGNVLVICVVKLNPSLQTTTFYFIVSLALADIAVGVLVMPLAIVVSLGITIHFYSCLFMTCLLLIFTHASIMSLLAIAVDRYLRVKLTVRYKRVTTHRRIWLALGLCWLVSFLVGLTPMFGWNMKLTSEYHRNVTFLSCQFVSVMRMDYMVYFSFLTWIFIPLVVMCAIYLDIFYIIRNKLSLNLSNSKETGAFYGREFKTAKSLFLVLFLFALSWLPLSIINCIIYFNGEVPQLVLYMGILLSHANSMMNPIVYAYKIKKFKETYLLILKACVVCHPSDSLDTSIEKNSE
Experimental: as §1

[10] = system: Tel-Syk expressing BaF3 cells; assay: Tel-Syk BaF3 viability assay (growth factor-independent growth); type: cell-based, murine; conditions: Mus musculus; Tel-Syk BaF3, absence of IL-3
Experimental: HEK293 T-REx™ (Life Technologies, Grand Island, NY) stably transfected with human TEL-Syk (cloned as described prior section DNA constructs) were plated on black poly-D-lysine coated 96-well plates (BD Biosciences, San Diego, CA) in culture media containing tetracycline-free fetal bovine serum (Clontech, MountainView, CA) for 16 hours in a tissue culture incubator. Tel-Syk expression was induced for 6 hours in fresh growth media containing 1 μg/ml tetracycline (Sigma Chemicals, St. Louis, MO). Plates were preincubated with CC-509 for 90 minutes, fixed immediately with 4% formaldehyde in 1X PBS for 20 min at room temperature, and washed/permeabilized 5-times with PBS containing 0.1% Triton X-100. Plates were blocked with Odyssey Blocking Buffer for 90 minutes at room temperature and incubated overnight at 4°C on a rotating platform with rabbit phospho-Syk (1:1000) and mouse V5 (1:2500) primary antibodies diluted in Odyssey Blocking Buffer. […] Viability of BaF/3 cells expressing Tel-Syk grown in the absence of murine IL-3 was measured using Cell-Titer Glo reagent (Promega, Madison, WI), as described by supplier.

[11] = target: T8, human KDR in Hek cells (Homo sapiens, UniProt P35968); assay: KDR cellular selectivity assay (VEGF-induced KDR autophosphorylation); type: cell-based
T8 construct: host or cells: HEK293
T8 sequence (P35968 20-1356): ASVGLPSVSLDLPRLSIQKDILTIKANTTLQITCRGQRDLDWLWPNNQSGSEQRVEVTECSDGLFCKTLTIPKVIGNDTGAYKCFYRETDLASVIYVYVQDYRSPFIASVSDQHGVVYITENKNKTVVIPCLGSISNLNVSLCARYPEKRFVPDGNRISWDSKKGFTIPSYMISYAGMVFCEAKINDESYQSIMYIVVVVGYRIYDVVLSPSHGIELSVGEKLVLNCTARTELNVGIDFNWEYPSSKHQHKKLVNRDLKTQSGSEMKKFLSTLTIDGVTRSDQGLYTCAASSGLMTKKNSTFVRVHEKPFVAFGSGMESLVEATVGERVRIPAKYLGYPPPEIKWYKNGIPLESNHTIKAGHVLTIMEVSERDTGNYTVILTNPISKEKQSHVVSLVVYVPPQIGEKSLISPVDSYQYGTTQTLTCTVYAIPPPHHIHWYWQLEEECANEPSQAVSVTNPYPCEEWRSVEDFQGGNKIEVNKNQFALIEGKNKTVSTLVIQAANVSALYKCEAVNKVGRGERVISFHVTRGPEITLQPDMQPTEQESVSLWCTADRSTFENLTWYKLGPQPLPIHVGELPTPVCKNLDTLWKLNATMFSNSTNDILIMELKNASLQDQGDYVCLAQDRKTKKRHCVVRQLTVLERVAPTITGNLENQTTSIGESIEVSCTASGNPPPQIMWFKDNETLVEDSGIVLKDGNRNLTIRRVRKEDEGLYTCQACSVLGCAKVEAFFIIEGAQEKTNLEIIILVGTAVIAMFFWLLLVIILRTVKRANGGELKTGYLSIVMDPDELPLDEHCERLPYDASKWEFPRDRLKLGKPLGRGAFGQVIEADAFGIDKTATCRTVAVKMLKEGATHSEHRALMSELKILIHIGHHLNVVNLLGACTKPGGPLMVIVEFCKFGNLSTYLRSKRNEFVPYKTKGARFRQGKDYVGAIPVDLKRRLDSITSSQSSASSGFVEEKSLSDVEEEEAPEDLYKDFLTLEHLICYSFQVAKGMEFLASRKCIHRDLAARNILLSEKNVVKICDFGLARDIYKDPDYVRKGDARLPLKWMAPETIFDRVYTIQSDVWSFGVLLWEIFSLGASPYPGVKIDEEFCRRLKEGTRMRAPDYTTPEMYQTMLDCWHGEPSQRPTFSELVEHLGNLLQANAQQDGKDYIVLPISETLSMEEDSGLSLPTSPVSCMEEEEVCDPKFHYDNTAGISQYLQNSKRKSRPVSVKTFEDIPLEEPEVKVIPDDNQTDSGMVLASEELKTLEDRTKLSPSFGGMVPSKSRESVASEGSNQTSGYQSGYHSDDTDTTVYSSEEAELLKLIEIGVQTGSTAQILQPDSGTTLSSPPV
Experimental: HEK KDR cells were plated on 96-well flat bottom plates for 16 hours in a tissue culture incubator. […] Briefly, cells on plates were lysed with Mesoscale lysis buffer (containing phosphatase/ proteinase inhibitors and 0.05% SDS), frozen at -80°C for 2 hours, and then placed on an orbital shaker at 4°C for 16 hours. Cell lysate was transferred to a blocked phopsho-KDR plate, incubated at room temperature for 2 hours, washed twice, and blotted dry. The detection antibody was added to all wells on the plate, incubated for 2 hours at room temperature on an orbital shaker, and plate was washed three times. Diluted Mesoscale detection solution was added to each well and the plates were read on the Sector Imager instrument (Mesoscale, Gaithersberg, MD).
For the neutrophil, macrophage, KDR, and JAK1/3 assays, raw values were exported into ActivityBase to calculate percent inhibition. All IC50 calculations were generated using XLfit (IDBS, Guildford, UK) algorithm 205 within Excel.

[12] = plasma compound exposure in rat CIA study; type: in vivo; conditions: for AUC(0-t): female, Lewis, rat, plasma, po, read-out: AUC0-24h in plasma after the last day of dosing
Experimental: Female Lewis rats (150 – 170g; Charles River Laboratories) were house standard shoebox cages, fed Harlan-Tekald diet and water ad libitum and maintained on a 12h light/dark cycle. For induction of arthritis rats were anesthetized with isofluorane and their entire dorsal area shaved. Rats were injected (intradermal) with 100 μl of equal volumes of collagen (Chrondrex, Redmond, WA) and IFA (Sigma Chemicals, St. Louis, MO) emulsion in 10 sites across the dorsal region. At disease onset 11 days following immunization animals were randomized into groups based on their ankle measurements and test article administration was initiated. Rats were dosed orally with vehicle (20% Captisol®), Indomethacin (Sigma Chemicals, St. Louis, MO, 2mg/kg) or CC-509 (15, 25mg/kg QD or 15mg/kg BID) in a dose volume of 5ml/kg. […] On the last day of the study animals were split into 2 cohorts and bleed twice via tail bleed under isofluorane anesthesia and a third terminal bleed following CO2 asphyxiation to obtain a time course of plasma compound exposure at 30minutes, 1, 2, 4, 8 and 24h after the last dose of CC-509.

[13] = preclinical toxicology studies, myelosuppression in male rats; type: in vivo, rat

In the case of `COc1cc(Nc2ncc(F)c(Nc3ccc4c(n3)NC(=O)C(C)(C)O4)n2)cc(OC)c1OC` [R406, reference compound], the “effect in the PCA model” value [1] is given as “statistically significant effect”, the “exposure following a single dose” value ([2]; 10 mg/kg b.i.d.) is given as 15 µM·h and the “exposure following a single dose” value ([2]; 30 mg/kg b.i.d.) is given as 38 µM·h.

Work on `c1cc(CC2CCOCC2)n2nc(Nc3ccc4c(NC5CCOCC5)n[nH]c4c3)nc2c1` [CC-509, [3-(2H-3,4,5,6-tetrahydropyran-4-ylamino)(1H-indazol-6-yl)][5-(2H-3,4,5,6-tetrahydropyran-4-ylmethyl)(2H-1,2,4-triazolo[1,5-a]pyridin-2-yl)]amine] yielded a remaining activity at 3 µM [3] of 73%, a remaining activity at 3 µM [4] of 88% and a remaining activity at 3 µM [5] of 22%. The remaining activity at 3 µM [6] was 96%, the inhibition at 10 µM [7] was 89% and the inhibition at 10 µM [8] was 96%. It also gave an inhibition at 10 µM [9] of 84%, an IC50 [10] of 1.61 ± 0.41 µM and an IC50 ([11]; Hek cells) of 7.43 ± 3.36 µM. For the same compound, the “fold difference in potency between R406 and CC-509, KDR cellular assay” value ([11]; R406 more potent) was 10 fold, the AUC(0-t) ([12]; 15 mg/kg, 15 mg/kg b.i.d.) was 60 µM·h and the AUC(0-t) ([12]; 15 mg/kg, 15 mg/kg q.d.) was 22 µM·h. For the same compound, the AUC(0-t) ([12]; 25 mg/kg, 25 mg/kg q.d.) was 45 µM·h, the minimal efficacious exposure ([12]; rat CIA) was 45 µM·h and the exposure producing myelosuppression [13] was 630 µM·h. The “fold higher exposure producing myelosuppression than R406” value [13] was “approximately 5 fold”.
